Results on six compounds are retold here after patent publication US20250339567A1, “COMPOUNDS WITH IMPROVED PHARMACOKINETICS FOR IMAGING AND THERAPY OF CANCER” (priority 2019, published 2025).

Data set [1] is described as follows: Plasma studies: metabolic stability in vitro in human plasma (radio RP-HPLC). The format is in vitro ADME. The following applies: Table 1C; 177Lu-labeled, 37° C., 72 ± 2 h; in % (unit assumed). As for the experimental part: Metabolic stability in vitro was determined applying a procedure published by Linder et al. that was slightly modified. Immediately after labeling, human (200 μL) or murine (100 μL) plasma was added and the mixture was incubated at 37° C. for 72±2 h (or 6±0.5 h). Proteins were precipitated by treatment with ice-cold EtOH (150 μL [human], 100 μL [murine]) and ice-cold MeCN (450 μL [human], 300 μL [murine]), followed by centrifugation for 20 min at 13000 rpm. The supernatants were decanted and further analyzed using radio RP-HPLC. […]

The target of the next data set is T1, GRPR (Homo sapiens, UniProt P30550).
T1 construct: endogenous in cells; host or cells: PC-3 cells
T1 sequence (P30550 whole entry): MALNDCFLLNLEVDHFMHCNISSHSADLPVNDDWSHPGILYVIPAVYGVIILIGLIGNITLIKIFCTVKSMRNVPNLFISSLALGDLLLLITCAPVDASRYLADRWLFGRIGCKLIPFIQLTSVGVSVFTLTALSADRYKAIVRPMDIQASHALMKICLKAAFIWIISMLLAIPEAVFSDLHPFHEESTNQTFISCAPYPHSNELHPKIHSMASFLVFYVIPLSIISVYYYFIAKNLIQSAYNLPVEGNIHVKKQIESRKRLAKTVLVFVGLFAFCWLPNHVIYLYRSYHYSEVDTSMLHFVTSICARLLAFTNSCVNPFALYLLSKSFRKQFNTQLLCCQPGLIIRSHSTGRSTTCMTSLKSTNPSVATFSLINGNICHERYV
Briefly: Determination of GRPR affinity (IC50), competition with [D-3-[125I]I-Tyr6]MJ9 on PC-3 cells. The format is binding. The following applies: for IC50 [nM], ^natLu-labeled (n = 3): Table 6, natLu-labeled. As for the experimental part:
The reference ligand for IC50 studies ([D-3-[^125I]I-Tyr^6]MJ9) is prepared according to a previously published procedure. Briefly, 0.2 mg of [D-Tyr^6]MJ9 are dissolved in 20 μL Tracepur water and 280 μL TRIS buffer (25 mm TRIS HCl, 0.4 M NaCl, pH=7.9). After addition of the solution to a vial containing 150 μg Iodo-Gen® (1,3,4,6-Tetrachloro-3α,6α-diphenylglycouril, surface-bound), 5.0 μL (16 MBq) [^125I]Nal(74 TBq/mmol, 3.1 GBq/mL, 40 mM NaOH, Hartmann Analytic, Braunschweig, Germany) are added.
The GRPR-positive PC-3 cells are cultured in Dublecco modified Eagle medium/Nutrition Mixture F-12 with Glutamax-I (1:1) (Invitrigon), supplemented with 10% fetal calf serum and maintained at 37° C. in a humidified 5% CO2 atmosphere.
After removal of the culture medium, the cells are washed once with 500 μL of HBSS (Hank's balanced salt solution, Biochrom, Berlin, Germany, with addition of 1% bovine serum albumin (BSA)) and left in 200 μL HBSS (1% BSA) for 9 min at room temperature for equilibration. Next, 25 μL per well of solutions, containing either HBSS (1% BSA) as control or the respective ligand in increasing concentration (10^−10 M-10^−4 M in HBSS), are added with subsequent addition of 25 μL of [D-3-[^125I]I-Tyr^6]MJ9 (2.0 nM) in HBSS (1% BSA).
All experiments are performed in triplicate for each concentration. After 2 h incubation at room temperature, the experiment is terminated by removal of the medium and consecutive rinsing with 300 μL of HBSS. The media of both steps are combined in one fraction and represent the amount of free radiolabeled reference. Afterwards, the cells are lysed with 300 μL of 1 M NaOH for at least 15 min and united with the 300 μL NaOH of the following washing step. Quantification of bound and free radiolabeled reference is accomplished in a γ-counter.
IC50 determination for each ligand was repeated twice.

The nature of data set [2]: n-Octanol-PBS distribution coefficient, log D7.4. The format is physicochemical. The following applies: for log D7.4 (n = 6), ^177Lu-labeled: Table 6, 177Lu-labeled Bombesin-SiFA compounds; for log D7.4 (n = 6), ^99mTc-labeled: n-octanol/PBS pH 7.4. As for the experimental part: Approximately 1 MBq of the labeled tracer was dissolved in 1 mL of a 1:1 mixture (v/v) of phosphate buffered saline (PBS, pH=7.4) and n-octanol in an Eppendorf tube. After vigorous mixing of the suspension for 3 min at room temperature, the vial was centrifuged at 9000 rpm for 5 min (Biofuge 15, Heraus Sepatech, Osterode, Germany) and 200 μL aliquots of both layers were measured in a γ-counter. The experiment was repeated at least four times.

Setting [3] is: [D-3-[125I]I-Tyr6]MJ9 (c = 0.2 nM), 2 h, r.t.
[4] abbreviates: IC50 [nM] ± SD (n = 3), Table 5, non-labeled N4 ligands, [D-3-[125I]I-Tyr6]MJ9 (c = 0.2 nM), 2 h, r.t.

The structures appear in SMILES notation. Like-named read-outs stand apart in the source and are kept apart here. Starred links: 1 amine or outer side, 2 acyl side, 3 side chain; linkers in the order of their positions; H or OH if unused. Non-standard residues stand in square brackets, D forms with d. Residues, ends and D or L forms follow the SMILES beside them. *: point of attachment. DOTAGA = O=C(O)CN1CCN(CC(=O)O)CCN(C(CCC(=O)*)C(=O)O)CCN(CC(=O)O)CC1; Benzoyl(4-SiFtBu2) = CC(C)(C)[Si](F)(c1ccc(C(=O)*)cc1)C(C)(C)C; d(γGlu) = O=C(O)[C@@H](CCC(=O)[*:2])N[*:1]; Sta = CC(C)C[C@H](N)[C@@H](O)CC(=O)O; Bta = N[C@@H](Cc1csc2ccccc12)C(=O)O; X1 = O=C(CN1CCC(N[*:1])CC1)[*:2]; dOrn = NCCC[C@@H](N)C(=O)O; X2 = NCCNCC(CNCCN)C(=O)*; dDap = NC[C@@H](N)C(=O)O; CO = O=C([*:1])[*:2]

On to `CC(C)CC(CC(C)C)NC(=O)[C@H](Cc1c[nH]cn1)NC(=O)CNC(=O)[C@@H](NC(=O)[C@H](C)NC(=O)[C@](C)(Cc1c[nH]c2ccccc12)NC(=O)[C@H](CCC(N)=O)NC(=O)[C@@H](Cc1ccccc1)NC(=O)COCC(=O)Nc1ccc(CNC(=O)CN2CCN(CC(=O)O)CCN(CC(=O)O)CCN(CC(=O)O)CC2)cc1)C(C)C` [[α-Me-Trp^8]NeoBOMB1], for which the “Amount of intact tracer after incubation in human plasma for 72 ± 2 h (n = 2)” value in data set [1] came out at 70.7 ± 2.8. For the same compound, at GRPR (read-out: IC50 [nM] ± SD (n = 3), ^177Lu-labeled, Table 1C, GRPR affinity), the IC50 was found to be 6.8 ± 1.2 nM.
As to `CC(C)C[C@H](NC(=O)C[C@H](O)[C@H](CC(C)C)NC(=O)[C@H](Cc1c[nH]cn1)NC(=O)CNC(=O)[C@@H](NC(=O)[C@H](C)NC(=O)[C@H](Cc1c[nH]c2ccccc12)NC(=O)[C@H](CCC(N)=O)NC(=O)[C@@H](Cc1ccccc1)NC(=O)CN1CCC(NC(=O)[C@@H](CN)NC(=O)[C@@H](CC(=O)O)NC(=O)[C@@H](CCCN)NC(=O)[C@@H](CNC(=O)CCC(C(=O)O)N2CCN(CC(=O)O)CCN(CC(=O)O)CCN(CC(=O)O)CC2)NC(=O)[C@@H](CNC(=O)c2ccc([Si](F)(C(C)(C)C)C(C)(C)C)cc2)NC(=O)CC[C@@H](NC(=O)N[C@H](CCC(=O)O)C(=O)O)C(=O)O)CC1)C(C)C)C(N)=O` (stereo partly drawn) [GT51] ({dE-CO-d(γGlu)}-[dDap](Benzoyl(4-SiFtBu2))[dDap](DOTAGA)[dOrn][dD][dDap][X1][dF]QWAVGH[Sta]L-NH2), the “IC50 [nM], ^natLu-labeled (n = 3)” value at GRPR (setting [3]) is on record as “slightly increased”. Also, the “log D7.4 (n = 6), ^177Lu-labeled” value in data set [2] was −1.96 ± 0.15.
Taken in the same sequence, the figures for `CC(C)C[C@H](NC(=O)C[C@H](O)[C@H](CC(C)C)NC(=O)[C@H](Cc1c[nH]cn1)NC(=O)CNC(=O)[C@@H](NC(=O)[C@H](C)NC(=O)[C@H](Cc1c[nH]c2ccccc12)NC(=O)[C@H](CCC(N)=O)NC(=O)[C@@H](Cc1ccccc1)NC(=O)CN1CCC(NC(=O)CN2CCC(NC(=O)[C@@H](CC(=O)O)NC(=O)[C@@H](CNC(=O)CCC(C(=O)O)N3CCN(CC(=O)O)CCN(CC(=O)O)CCN(CC(=O)O)CC3)NC(=O)[C@@H](CNC(=O)c3ccc([Si](F)(C(C)(C)C)C(C)(C)C)cc3)NC(=O)CC[C@@H](NC(=O)N[C@H](CCC(=O)O)C(=O)O)C(=O)O)CC2)CC1)C(C)C)C(N)=O` (stereo partly drawn) [GT53] ({dE-CO-d(γGlu)}-[dDap](Benzoyl(4-SiFtBu2))[dDap](DOTAGA)[dD][X1][X1][dF]QWAVGH[Sta]L-NH2) were “slightly increased” and −1.81 ± 0.15.
For `CC(C)C[C@H](NC(=O)C[C@H](O)[C@H](CC(C)C)NC(=O)[C@H](Cc1c[nH]cn1)NC(=O)CNC(=O)[C@@H](NC(=O)[C@H](C)NC(=O)[C@H](Cc1c[nH]c2ccccc12)NC(=O)[C@H](CCC(N)=O)NC(=O)[C@@H](Cc1ccccc1)NC(=O)CN1CCC(NC(=O)[C@@H](CN)NC(=O)[C@@H](CCCN)NC(=O)[C@@H](CC(=O)O)NC(=O)[C@@H](CC(=O)O)NC(=O)[C@@H](CNC(=O)CCC(C(=O)O)N2CCN(CC(=O)O)CCN(CC(=O)O)CCN(CC(=O)O)CC2)NC(=O)[C@@H](CNC(=O)c2ccc([Si](F)(C(C)(C)C)C(C)(C)C)cc2)NC(=O)CC[C@@H](NC(=O)N[C@H](CCC(=O)O)C(=O)O)C(=O)O)CC1)C(C)C)C(N)=O` (stereo partly drawn) [GT50] ({dE-CO-d(γGlu)}-[dDap](Benzoyl(4-SiFtBu2))[dDap](DOTAGA)[dD][dD][dOrn][dDap][X1][dF]QWAVGH[Sta]L-NH2) the same measures were “comparable range” and −1.96 ± 0.15.
Compound `CC(C)C[C@H](NC(=O)C[C@H](O)[C@H](CC(C)C)NC(=O)[C@H](Cc1c[nH]cn1)NC(=O)CNC(=O)[C@@H](NC(=O)[C@H](C)NC(=O)[C@H](Cc1csc2ccccc12)NC(=O)[C@H](CCC(N)=O)NC(=O)[C@@H](Cc1ccccc1)NC(=O)CN1CCC(NC(=O)[C@H](CC(=O)O)NC(=O)C(CNCCN)CNCCN)CC1)C(C)C)C(N)=O` [N4-asp-[Bta^8]MJ9] (X2-D[X1][dF]Q[Bta]AVGH[Sta]L-NH2) had an IC50 on GRPR (setting [4]) of 3.36 ± 0.42 nM. Besides, the “log D7.4 (n = 6), ^99mTc-labeled” value in data set [2] was −1.33 ± 0.06.
Taken in the same sequence, the figures for `CC(C)C[C@H](NC(=O)C[C@H](O)[C@H](CC(C)C)NC(=O)[C@H](Cc1c[nH]cn1)NC(=O)CNC(=O)[C@@H](NC(=O)[C@H](C)NC(=O)[C@H](Cc1c[nH]c2ccccc12)NC(=O)[C@H](CCC(N)=O)NC(=O)[C@@H](Cc1ccccc1)NC(=O)CN1CCC(NC(=O)[C@H](CC(=O)O)NC(=O)C(CNCCN)CNCCN)CC1)C(C)C)C(N)=O` [Ligand N4-asp-MJ9] were 3.73 ± 0.78 nM and −1.86 ± 0.03.
